Laboratory results: patent US20250367302A1, “SMALL MOLECULE DRUG-OLIGONUCLEOTIDE CONJUGATE AND USE THEREOF” (SHANGHAI JIAO TONG UNIVERSITY, priority 2022, published 2025)

Legend:
[1] = system: NFKBIZ mRNA; test: NFKBIZ mRNA expression by RT-qPCR in LPS-stimulated HCECs; assay type: cell-based, human; settings: LPS-stimulated (100 ng/mL) HCECs, 10 μM ASO or siRNA, without transfection reagent, 6 h + 48 h
Experimental: HCECs were inoculated in a 6-well plate at a density of 1×10^5 cells/well and cultured until adherence. The cells were then stimulated with 100 ng/mL lipopolysaccharide (LPS) overnight. After removing the supernatant, 1 mL of Opti-MEM medium containing ASONFKBIZ-h, ASONFKBIZ-h+Lipofectamine2000 (Lipo2000), and CsA-ASONFKBIZ-h (all containing 10 µM ASO) were added, respectively. Cells without any treatment were used as a blank reference (Mock). After incubation at 37° C. for 6 h, the cells were transferred into DMEM medium and incubated for another 48 h. The cells were collected and RNA was extracted for RT-qPCR to analyze the expression level of the NFKBIZ mRNA in HCECs, and experimental results were shown in FIG. 9. The expression level of NFKBIZ mRNA in HCECs after LPS stimulation was about 1.3 times that of normal cells. […] After adding CsA-ASONFKBIZ-h for co-incubation, the expression of NFKBIZ mRNA was reduced to about 0.8 times that of normal cells.
(§1) HCECs were inoculated in a 6-well plate at a density of 1×10^5 cells/well and cultured until adherence. The cells were then stimulated with 100 ng/mL LPS overnight. After removing the supernatant, 1 mL of Opti-MEM medium containing ASONFKBIZ-h+Lipo2000 complex and 2CsA-ASONFKBIZ-h nanomicelles (all containing 10 µM ASO) were added, respectively. After incubation at 37° C. for 6 h, the cells were transferred into DMEM medium and incubated for another 48 h. The cells were collected and RNA was extracted for RT-qPCR to analyze the expression level of the NFKBIZ mRNA in HCECs, and experimental results were shown in FIG. 12.
as §1, with “ng/ml” for “ng/mL”, “3CsA-ASONFKBIZ-h” for “2CsA-ASONFKBIZ-h”, “15.” for “12.”
HCECs were inoculated in a 6-well plate at a density of 1×10^5 cells/well and cultured until adherence. The cells were then stimulated with 100 ng/mL LPS overnight. 1 mL of Opti-MEM medium containing ASONFKBIZ-h+Lipo2000 complex and CsA3-ASONFKBIZ-h nanomicelles (all containing 10 µM ASO) were added, respectively. After incubation at […]. 37° C. for 6 h, the cells were transferred into DMEM medium and incubated for another 48 h. After collected and RNA was extracted for RT-qPCR to evaluate the expression level of NFKBIZ mRNA in HCECs, and the experimental results were shown in FIG. 23.
HCECs were inoculated in a 6-well plate at a density of 1×10^5 cells/well and cultured overnight until adherence. The cells were then stimulated with 100 ng/ml LPS for 12 h. After removing the supernatant, 1 mL of Opti-MEM medium containing siRNANFKBIZ-h+Lipo2000 complex and nCsA-siRNANFKBIZ-h (n=1, 2, 3) conjugates and nanomicelles (all containing 10 μM siRNA) were added, respectively. After incubation at 37° C. for 6 h, the cells were transferred into DMEM medium and incubated for another 48 h. The cells were collected and RNA was extracted for RT-qPCR to evaluate the expression of NFKBIZ mRNA in HCECs, and experimental results were shown in FIG. 27. […]

[2] = system: NFKBIZ mRNA; test: NFKBIZ mRNA expression by RT-qPCR in IL-36-stimulated HaCaT cells; assay type: cell-based, human; settings: IL-36-stimulated (100 ng/ml, 2 h) HaCaT cells, nanomicelles with 10 μM ASONFKBIZ-h, 6 h + 48 h
Experimental: HaCaT cells from human keratinocyte cell line were inoculated in a 6-well plate at a density of 1×10^5 cells/well and cultured until adherence. The cells were then stimulated with 100 ng/ml interleukin-36 (IL-36) for 2 h. After washing with 1×PBS buffer, 1 mL of Opti-MEM medium containing ASONFKBIZ-h+Lipo2000 complex and CsA3-ASONFKBIZ-h nanomicelles (all containing 10 μM ASONFKBIZ-h) were added, respectively. After incubation with HaCaT cells for 6 h, the cells were transferred into fresh DMEM medium, while cells without any treatment or stimulated with IL-36 alone were used as a control, all cells were incubated at 37° C. for 48 h. The cells were collected and RNA was extracted for RT-qPCR to analyze the expression level of the NFKBIZ mRNA in HaCaT cells, and experimental results were shown in FIG. 51.
HaCaT cells from human keratinocyte cell line were inoculated in a 6-well plate at a density of 1×10^5 cells/well and cultured until adherence. The cells were then stimulated with 100 ng/ml interleukin-36 (IL-36) for 2 h. After washing with 1×PBS buffer, 1 mL of Opti-MEM medium containing ASONFKBIZ-h+Lipo2000 complex and 10TA-ASONFKBIZ-h nanomicelles (all containing 10 μM ASONFKBIZ-h) were added, respectively. […]

Question: “CsA3-ASONFKBIZ-h: CsA trimer on tripropargyl linker at 3′ end of ASO targeting human NFKBIZ (SEQ ID NO: 7) (ATCAGACAACGAATCGGGC; 3'-NHS ASO with tripropargyl linker carrying three cyclosporin A, chemistry not given here, further chemistry not given here)” was tested. Which “expression of NFKBIZ mRNA relative to normal cells” value [1] did it give?
Answer: about 0.5 times that of normal cells

Question: And the “NFKBIZ mRNA expression relative to normal cells” value [2]?
Answer: about 0.8 times
